The record followed here is PubChem BioAssay (NCI).

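All cell lines were grown in 96-well plates and treated with compound for 48 hours. Abbreviation: GI50, concentration required for 50% inhibition of growth. TGI marks complete inhibition of growth.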

Holding throughout (test): growth of human tumour cells (NCI), 48 h
Experiment [1] concerns OVCAR-3 ovarian.
The subject of experiment [2] is RPMI-8226 leukemia.
In experiment [3] the test system is MDA-MB-435.
For experiment [4], the system named is HT29 colon.
The test system of experiment [5] is LOX IMVI melanoma.
Experiment [6] relates to DU-145 prostate.
Experiment [7] concerns SW-620 colon.
Experiment [8] relates to SF-539 CNS.
For experiment [9], the system named is OVCAR-4 ovarian.
For experiment [10], the system named is NCI/ADR-RES ovarian.

As for `CCOC(=O)c1sc(=S)c2c(C(=O)c3ccccc3)c(C(=O)c3ccccc3)sc2c1C(=O)OCC`, the GI50 in experiment [1] is 2.01 µM; in experiment [2] it was 2.87 µM; in experiment [3], 3.34 µM; in experiment [4] it was 6.9 µM; in [5] it was 5.08 µM; in experiment [6], 4.07 µM. Moreover, the GI50 was 4.25 µM in [7], 3.82 µM in experiment [8] and 9.58 µM in [9]. Further, the TGI in experiment [1] was 5.93 µM; in experiment [2], 9.19 µM; in [3], 9.66 µM; in [4], greater than 100 µM; in [5] it was greater than 100 µM; in [6], greater than 100 µM. Besides, the TGI in experiment [7] is greater than 100 µM; in experiment [8] it was 17.8 µM; in experiment [9], greater than 100 µM.

`CC1CCC2(OC1)OC1CC3C4CC=C5CC(OC6OC(CO)C(OC7OC(C)C(OC8OC(C)C(O)C(O)C8O)C(O)C7O)C(O)C6OC6OC(C)C(O)C(O)C6O)CCC5(C)C4CCC3(C)C1C2C` (configuration not stated): the TGI in experiment [1] stood at 3.31 µM; in experiment [3], 1.18 µM; in [4], 2.2 µM; in experiment [5], 0.733 µM; in experiment [6] it was 2.54 µM; in experiment [7] it was 2.89 µM. Also, the TGI in [8] turned out to be 1.52 µM; in experiment [9], 1.33 µM.

Turning to `C/C(=N\NC(=S)N(C)C)c1ncc[nH]1`, the TGI in experiment [1] was greater than 100 µM; in [2] it was greater than 100 µM; in experiment [4] it was greater than 100 µM; in experiment [5], greater than 100 µM; in experiment [7] it was greater than 100 µM; in experiment [8] it was 8.15 µM.

For the molecule `OCCN(CO)CN(CN(CO)CCO)c1nc(N(CN(CO)CCO)CN(CO)CCO)nc(N(CN(CO)CCO)CN(CO)CCO)n1`, the GI50 in [2] was 0.55 ng/mL; in experiment [4] it was 0.911 ng/mL; in experiment [6], 1.9 ng/mL; in experiment [7], 0.55 ng/mL; in experiment [8], 1.42 ng/mL; in experiment [9], 1.7 ng/mL. Moreover, the TGI in experiment [2] stood at 0.55 ng/mL; in experiment [4] it was 15.2 ng/mL; in [6], 78.3 ng/mL; in experiment [7], 6.27 ng/mL; in experiment [8], 3.91 ng/mL; in experiment [9] it was 4.8 ng/mL.

As for `COc1ccc(-c2ccc(/C=N/n3cn[nH]c3=S)o2)c([N+](=O)[O-])c1`, the GI50 in [1] was 33.9 µM; in experiment [10], 30.5 µM; in experiment [2] it was 22.5 µM; in experiment [3], 19.8 µM; in experiment [4] it was 32.6 µM; in [6], 80.5 µM. Moreover, the figures for the GI50 in experiment [7], in experiment [8] and in experiment [9] were 29.8 µM, 40.9 µM and 82.9 µM, respectively. The TGI in experiment [1] is greater than 100 µM; in [10], 94 µM; in experiment [2] it was 70.1 µM; in experiment [3], 44.8 µM; in [4] it was greater than 100 µM; in experiment [6], greater than 100 µM. In addition, the TGI in [7], in [8] and in experiment [9] was greater than 100 µM in each case.

Turning to `C/C(=N\NC(N)=S)c1ccc2c(c1)OCO2`, the TGI in experiment [1], in experiment [2], in experiment [4], in experiment [5], in [7] and in experiment [8] was greater than 100 µM in each case.

Regarding `CC(=O)/C=C1/c2ccccc2N(C(C)=O)C1O` (configuration not stated), the TGI in experiment [1], in [2], in experiment [4], in experiment [7], in experiment [8] and in [9] was greater than 100 µM throughout.

On to `Cc1cccc(C(C)(C)C)c1NC(=O)CC1C(=O)Nc2ccccc2S1=O` (configuration not stated), for which the TGI in experiment [1], in experiment [2], in experiment [4], in experiment [5], in [7] and in experiment [8] was greater than 100 µM each time. In experiment [9], the TGI came to 80.1 µM.

Consider `Cc1cccc(C(C)O)n1` (configuration not stated), for which the TGI in experiment [1], in experiment [10], in experiment [4], in [6], in [7] and in [8] was greater than 100 µM each time. In addition, in [9], the TGI was greater than 100 µM.

As for `CCc1ccccc1NC(=O)CCc1nc(=S)[nH][nH]1`, the TGI in experiment [1], in [2], in [4], in experiment [5], in experiment [7] and in experiment [8] was greater than 100 µM throughout. The molecule also came in with a TGI in [9] greater than 100 µM.

Regarding `COc1ccc(C2(CN(C)C)COc3cc(OC)c(OC)cc3C2=O)cc1OC` (configuration not stated), the TGI in experiment [1] was greater than 100 µM; in experiment [2], 63.4 µM; in experiment [4], greater than 100 µM; in experiment [5] it was 31.1 µM; in [7], 45.8 µM; in experiment [8], greater than 100 µM. Also, the TGI in [9] was greater than 100 µM.

Consider `O=c1c2cc(Br)ccc2oc2ccc(Br)cc12`, for which the TGI in [1], in experiment [10], in experiment [2], in experiment [3], in [4] and in experiment [6] was greater than 100 µM each time. The TGI in experiment [7], in experiment [8] and in experiment [9] was greater than 100 µM in each case.

As to `COc1cc2c(cc1OC)-c1c(cnn1C1OC(COC(C)=O)C(OC(C)=O)C(OC(C)=O)C1OC(C)=O)CC2` (configuration not stated), the TGI is greater than 100 µM in [1]; greater than 57.3 µM in [2]; greater than 100 µM in experiment [4]; greater than 100 µM in experiment [5]; greater than 100 µM in experiment [7]; greater than 100 µM in [8]. This molecule gave a TGI in [9] greater than 100 µM.

With `O=[N+]([O-])c1ccc(Cc2nc3ccccc3s2)cc1`, the TGI in experiment [1] was greater than 100 µM; in experiment [2], greater than 100 µM; in experiment [4], greater than 100 µM; in experiment [7] it was greater than 100 µM; in [8], 70.4 µM; in experiment [9], greater than 100 µM.

`O=C(CC(=O)Nc1ccc(Cl)cc1)NNCC(=O)Nc1nc(-c2ccccc2)cs1`: the TGI in experiment [1], in experiment [2], in experiment [4], in experiment [5], in [7] and in experiment [8] was greater than 100 µM each time. Moreover, the TGI in experiment [9] is greater than 100 µM.

On to `N=C(c1ccccc1)N1CCCCC1`, for which the TGI in experiment [4], in [5], in experiment [7], in [8] and in experiment [9] was greater than 100 µM in each case.

As for `Cc1ccccc1C(C#N)/C(=N/NC(=O)c1cc2ccccc2cc1O)C(=O)Nc1cccc(Cl)c1` (configuration not stated), the TGI in experiment [1] is 92.7 µM; in experiment [2], greater than 100 µM; in [4] it was greater than 100 µM; in [7], greater than 100 µM; in experiment [8], 69.9 µM; in [9], 87.7 µM.

`CC(C)=CC(=O)Cc1nc2ccccc2[nH]c1=O`: the TGI in experiment [1], in experiment [2], in experiment [4], in experiment [5], in experiment [7] and in experiment [8] was greater than 100 µM throughout. This molecule also yielded a TGI in experiment [9] greater than 100 µM.

Turning to `CN1C(c2ccccc2)CC(=Nc2ccccc2)CC1c1ccccc1` (configuration not stated), the TGI in experiment [1] is 24 µM; in experiment [2] it was 13.7 µM; in experiment [4], 34.2 µM; in [5] it was 16.8 µM; in experiment [7], 22.9 µM; in [9] it was 31 µM.

With `CCNC(=O)C(O)C1(O)CCC2[C@@H]3CCC4=CC(=O)C=C[C@]4(C)C3[C@@H](O)C[C@@]21C` (some centres not stated), the TGI in experiment [1], in experiment [2], in experiment [4], in experiment [5], in experiment [7] and in experiment [8] was greater than 100 µM each time. The TGI in experiment [9] is greater than 100 µM.

On to `COc1ccc2c(c1)[nH]c(=O)c1c3cccnc3cn21`, for which the GI50 was 0.0251 µM in experiment [1]; 0.0231 µM in experiment [10]; 0.0596 µM in experiment [2]; 0.03 µM in [4]; 0.0679 µM in experiment [5]; 0.0365 µM in [6]. The GI50 in experiment [7] is 0.0327 µM; in experiment [8], 0.033 µM; in experiment [9], 0.0735 µM. Besides, the TGI in [1] is 0.0588 µM; in experiment [10] it was 0.0571 µM; in [2] it was 32.4 µM; in experiment [4] it was 0.168 µM; in [5], 14 µM; in [6], greater than 100 µM. The TGI in [7] is 13.2 µM; in experiment [8], 2.39 µM; in experiment [9] it was greater than 100 µM.

As for `COc1ccccc1NC(=O)CC(=O)n1nc(C)c(N=Nc2ccccc2F)c1C`, the TGI in experiment [1] was greater than 100 µM; in experiment [2], greater than 100 µM; in [4], greater than 100 µM; in [5] it was greater than 100 µM; in [7], greater than 100 µM; in experiment [8] it was greater than 64 µM. Moreover, the TGI in experiment [9] is greater than 100 µM.

Take `COC(=O)c1nc(-c2ccc(Cl)c(Cl)c2)nc2ccccc12`: the TGI is greater than 100 µM in experiment [1]; greater than 100 µM in experiment [2]; greater than 100 µM in experiment [4]; greater than 100 µM in [5]; greater than 100 µM in experiment [7]; greater than 61.3 µM in experiment [8].

`C=CCOc1cc2c(cc1C(C)c1ccc(OC)cc1)OCO2` (configuration not stated): the TGI in experiment [2] is greater than 74.4 µM; in experiment [3], 1.91 µM; in experiment [4], 2.26 µM; in experiment [5] it was greater than 83.9 µM; in [6] it was greater than 100 µM; in experiment [7], greater than 100 µM. Also, the figures for the TGI in [8] and in [9] were 1.34 µM and greater than 100 µM, respectively.

On to `COC(=O)Nc1ccc2ccc3c(NC(=O)OC)ccc4ccc1c2c43` (tested in a mixture with another compound), for which the GI50 in experiment [1] was 10.6 µM; in experiment [10], 4.59 µM; in [2] it was 8.22 µM; in [4], 4.31 µM; in [5], 6.67 µM; in experiment [6], 14.8 µM. Further, the GI50 in [7] was 3.9 µM; in experiment [8], 6.76 µM; in experiment [9], 15.7 µM. The TGI in [1] is 45.2 µM; in [10], 19.2 µM; in experiment [2], greater than 50 µM; in experiment [4], greater than 50 µM; in experiment [5] it was 19 µM; in experiment [6] it was greater than 50 µM. For the same molecule, the TGI in experiment [7] was greater than 50 µM; in [8], 17.8 µM; in experiment [9], greater than 50 µM.

As to `CCCCCCN1C(=O)/C(=c2\sc3n(c2=O)C2C(NN=3)N(CC)C(=O)N2CC)c2ccccc21` (configuration not stated), the GI50 in experiment [1] is 0.966 µM; in experiment [2], 2.57 µM; in experiment [3], 0.972 µM; in experiment [4], 1.5 µM; in [5] it was 1.53 µM; in experiment [6] it was 2.52 µM. Further, the GI50 in experiment [8] is 0.831 µM. The TGI is 2.06 µM in experiment [1]; greater than 50 µM in experiment [2]; 2.16 µM in experiment [3]; greater than 50 µM in experiment [4]; greater than 50 µM in experiment [5]; greater than 50 µM in experiment [6]. Further, the TGI in [8] amounted to 1.59 µM.

In the case of `CSC(=S)N(C)c1nc(=[N+](C)C)ss1`, the TGI in [2], in experiment [4], in experiment [7], in experiment [8] and in experiment [9] was greater than 100 µM in each case.

For the molecule `COc1ccc2[nH]c3c(cnn4cnnc34)c2c1`, the TGI in experiment [1], in [2], in experiment [4], in experiment [5], in experiment [7] and in experiment [8] was greater than 100 µM in each case. The molecule further displayed a TGI in [9] greater than 100 µM.

In the case of `Cc1cc2c(C(C)C)c(O)c(O)c3coc(/c1=c1/c(C)cc4c(C(C)C)c(=O)c(=O)c5coc1c45)c32`, the TGI was 16.6 µM in experiment [1]; 34.5 µM in experiment [2]; 14.4 µM in experiment [4]; 18 µM in [5]; 17.4 µM in experiment [7]; 12.9 µM in experiment [8]. The TGI in experiment [9] was 22.8 µM.
